pEC50: −log10 of the molar value.
Experiments:
[1] = test system: Hep-G2 cells; assay: Cell cytotoxicity CC50; type: cell-based; settings: mean of at least two experiments
Description: (§1) Plates were scanned and analysed using the Immunospot S6 Macro analyser, which is equipped with BioSpot analysis software for counting immunostained plaques (virospots). Plaque counts were used to calculate % infection relative to the mean of the plaque count in the virus control wells for RSV. […] Plaque EC50 and cell toxicity CC50 values are a mean of at least two experiments and figures are rounded to whole units.

[2] = test system: RSV A2; assay: RSV plaque reduction assay; type: cell-based, RSV (RSV A2 ECACC, 0709161v); settings: Hep-G2 cells, RSV A2, 2 days, mean of at least two experiments
How it was run: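 Hep-G2 monolayers infected with 100 PFU/well RSV A2 premixed with eight compound dilutions, 2 h at 37° C, then overlaid with 0.8% CMC/2% FBS DMEM containing compound for 2 days. Plaques immunostained (HRP/TrueBlue) and counted; EC50 from % infection versus virus control, mean of at least two experiments.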

[3] = Cell cytotoxicity CC50; type: cell-based; settings: human; mean of at least two experiments
Description: as §1

[4] = Liver microsomal stability (human); type: in vitro ADME; settings: 1 µM compound; for half-life at 1 µM: pooled liver microsomes, pH 7.4, 0.5 mg/mL protein, read-out: Liver Microsomal Stability t½
Experimental: (§2) Compounds were subjected to the following assays to investigate liver microsomal stability.
(§3) Pooled liver microsomes were purchased from a reputable commercial supplier and stored at -80° C. prior to use. Microsomes (final protein concentration 0.5 mg/mL), 0.1 M phosphate buffer pH 7.4 and test compound (final substrate concentration 1 µM; final DMSO concentration 0.25%) were pre-incubated at 37° C. prior to the addition of NADPH (final concentration 1 mM) to initiate the reaction. The final incubation volume was 50 µL. A control incubation was included for each compound tested where 0.1 M phosphate buffer pH 7.4 was added instead of NADPH (minus NADPH). Two control compounds were included with each species. All incubations were performed singularly for each test compound. Each compound was incubated for 0, 5, 15, 30 and 45 min. The control (minus NADPH) was incubated for 45 min only. The reactions were stopped by transferring incubate into acetonitrile at the appropriate time points, in a 1:3 ratio. The termination plates are centrifuged at 3,000 rpm for 20 min at 4° C. to precipitate the protein. Following protein precipitation, the sample supernatants were combined in cassettes of up to 4 compounds, internal standard added, and samples analysed by LC-MS/MS. From a plot of In peak area ratio (compound peak area/internal standard peak area) against time, the gradient of the line was determined. Subsequently, half-life (t½) and intrinsic clearance (CLint) were calculated.

[5] = Liver microsomal stability (rat); type: in vitro ADME; settings: 1 µM compound; for half-life at 1 µM: pooled liver microsomes, pH 7.4, 0.5 mg/mL protein, read-out: Liver Microsomal Stability t½
Experimental: as §2, §3

[6] = Liver microsomal stability (dog); type: in vitro ADME; settings: 1 µM compound; for half-life at 1 µM: pooled liver microsomes, pH 7.4, 0.5 mg/mL protein, read-out: Liver Microsomal Stability t½
Experimental: as §2, §3

[7] = test system: RSV; settings: Antimicrobial Agents and Chemotherapy, September 2007, 3346-3353; cited from earlier work
[8] = In vivo pharmacokinetics in rats; design: species or system rats [Sprague Dawley (SD)]; settings: male SD rats
Experimental: The pharmacokinetics of compounds were studied in vivo in rats at doses of 1 mg/kg (IV) and 10 mg/kg (PO).
Male rats [Sprague Dawley (SD)] surgically prepared with a jugular vein cannula were treated with experimental compounds via intravenous administration (IV; n=3; 1 mg/kg) or oral administration (PO; n=3; 10 mg/kg). Compounds were formulated as a solution in 40:60 dimethylacetamide:saline (IV administration) and a solution of 10% DMSO, 10% cremaphor in water (80%) (PO administration). […] Serial blood samples were collected via the cannula at 0.02, 0.08, 0.25, 0.5, 1, 2, 4, 6, 8 and 24 h post IV dosing of compound, and at 0.08, 0.25, 0.5, 1, 2, 4, 6, 8 and 24 h post oral dosing of compound, and plasma was prepared by centrifugation and stored immediately at -80° C. Samples were subsequently thawed, prepared for analysis by protein precipitation with acetonitrile, and analysed by tandem LCMS using electrospray ionisation using a matrix-matched calibration curve. PK parameters were calculated from the resulting data.

[9] = human respiratory syncytial virus, HepG2, 48 h

Compound: CCC1CCCn2nc(-c3ccccc3F)c(C(=O)N[C@H]3N=C(c4ccccc4)c4cccc(F)c4NC3=O)c2O1 (single isomer, unassigned) [Example 25-2, (5S*)-5-ethyl-2-(2-fluorophenyl)-N-[(3S)-9-fluoro-2-oxo-5-phenyl-1,3-dihydro-1,4-benzodiazepin-3-yl]-5,6,7,8-tetrahydropyrazolo[5,1-b][1,3]oxazepine-3-carboxamide]
- CC50 [1]: > 25000 nM
- pEC50 [2]: 7.08

Compound: CCC1CCCn2nc(-c3ccc(C)nc3)c(C(=O)N[C@H]3N=C(c4ccccc4)c4ccccc4NC3=O)c2O1 (single isomer, unassigned) [Example 26-2, (5S*)-5-ethyl-2-(6-methylpyridin-3-yl)-N-[(3S)-2-oxo-5-phenyl-2,3-dihydro-1H-1,4-benzodiazepin-3-yl]-5H,6H,7H,8H-pyrazolo[3,2-b][1,3]oxazepine-3-carboxamide]
- CC50 [1]: > 25000 nM
- pEC50 [2]: 6.48

Compound: CCC1CCCn2nc(-c3ccc(C)nc3)c(C(=O)N[C@H]3N=C(c4ccccc4)c4cccc(F)c4NC3=O)c2O1 (single isomer, unassigned) [Example 27-2, (5S*)-5-ethyl-N-[(3S)-9-fluoro-2-oxo-5-phenyl-2,3-dihydro-1H-1,4-benzodiazepin-3-yl]-2-(6-methylpyridin-3-yl)-5H,6H,7H,8H-pyrazolo[3,2-b][1,3]oxazepine-3-carboxamide]
- CC50 [1]: > 25000 nM
- pEC50 [2]: 6.59

Compound: O=C(N[C@H]1N=C(c2ccccc2)c2cccc(F)c2NC1=O)c1c(-c2ccccc2F)nn2c1OCCCC2 [Example 2, N-[(3S)-9-Fluoro-2-oxo-5-phenyl-1,3-dihydro-1,4-benzodiazepin-3-yl]-2-(2-fluorophenyl)-5,6,7,8-tetrahydropyrazolo[5,1-b][1,3]oxazepine-3-carboxamide]
- CC50 [3]: > 25000 nM
- half-life at 1 µM [4]: 6.05 h
- pEC50 [2, 9]: 7.48
- half-life at 1 µM [5]: 0.853 h
- half-life at 1 µM [6]: 5.42 h

Compound: O=C(N[C@H]1N=C(c2ccccc2)c2cccc(F)c2NC1=O)c1c(-c2ccccc2F)nn2c1OCC(F)(F)CC2 [Example 28, 6,6-Difluoro-N-[(3S)-9-fluoro-2-oxo-5-phenyl-2,3-dihydro-1H-1,4-benzodiazepin-3-yl]-2-(2-fluorophenyl)-5H,6H,7H,8H-pyrazolo[3,2-b][1,3]oxazepine-3-carboxamide]
- CC50 [3]: > 25000 nM
- half-life at 1 µM [4]: 11.2 h
- pEC50 [2, 9]: 7.35
- half-life at 1 µM [5]: 3.25 h
- half-life at 1 µM [6]: 31 h

Compound: O=C(Nc1ccccc1F)N[C@H]1N=C(c2ccccc2)c2ccccc2NC1=O [RSV604]
- anti-RSV activity [7]: sub-micromolar

Compound: N-((S)-9-fluoro-2-oxo-5-phenyl-2,3-dihydro-1H-benzo[b]azepin-3-yl)-2-(2-fluorophenyl)-5,6,7,8-tetrahydro-5,8-methanopyrazolo[5,1-b][1,3]oxazepine-3-carboxamide [Example 19]
- C 8 h ([8]; 8 h, route not stated in the row): 110 ng/mL
- IV t½ ([8]; IV 1 mg/kg): 2.30 h
- PO AUClast ([8]; PO 10 mg/kg): 4487 ng·h/mL
- PO t½ ([8]; PO 10 mg/kg): 2.9 h
- F ([8]; PO 10 mg/kg vs IV 1 mg/kg): 39.3%
- Cmax ([8]; route not stated in the row, study IV 1 mg/kg, PO 10 mg/kg): 949 ng/mL
- Cl ([8]; study IV 1 mg/kg, PO 10 mg/kg): 16.1 mL/min/kg
- Vd ([8]; study IV 1 mg/kg, PO 10 mg/kg): 2.8 L/kg
- CC50 [1]: > 25000 nM
- Liver Microsomal Stability t½ ([4]; human liver microsomes, 0.5 mg/mL protein): 1.23 h
- pEC50 [2]: 7.43
- Liver Microsomal Stability t½ ([5]; rat liver microsomes, 0.5 mg/mL protein): 2.13 h
- Liver Microsomal Stability t½ ([6]; dog liver microsomes, 0.5 mg/mL protein): 1.92 h

Source: US20230365585A1, “BENZODIAZEPINE DERIVATIVES USEFUL IN TREATING A RESPIRATORY SYNCYTIAL VIRUS INFECTION” (priority 2020, published 2023)
